Laboratory results from patent publication US20090246250A1, “COATING COMPOSITIONS HAVING IMPROVED PERFORMANCE” (priority 2008, published 2009).
Square brackets hold non-standard residues; d marks the D form. Ends that are not written are not given here. AEEA = NCCOCCOCC(=O)O

How the values were obtained:
[1] = system: Staphylococcus aureus strain MZ100; assay: Tibia pin assay: coated titanium pins with vancomycin, bacterial cfu count; format: cell-based; set-up: key: —: “-” means no cfus; “many” means too many cfus to count, as they converge into one spot; details: 3 hours 37° C.
From the text: In this assay, titanium pins were used as a model for tibia pins. Briefly, sterile pins were first coated with biofunctional composition (“SEQ ID NO:124-linker-SEQ ID NO:122”) comprising a substrate-binding peptide having binding specificity for vancomycin (“SEQ ID NO:124”) linked to a substrate-binding peptide having binding specificity for metal (“SEQ ID NO:122”), or a composition of the invention formed from compound comprising the biofunctional composition covalently coupled to fatty acid. The respective coatings also include vancomycin bound thereto. The coated pins were then placed in a silicone tube containing liquid bacterial growth medium and inoculated with bacteria. After incubation, the pins were removed, and then the liquid growth medium was serially diluted. The serial dilutions were inoculated onto bacterial culture plates, the plates were incubated, and counted on the plates were bacterial colonies.
In this assay, test samples (biofunctional composition (Table 6, “BC”) or compositions 133, 134, 135, 136 139) each were used to coat a pin by incubating the test sample (in a range of from about 0.8 mM to about 1 mM) with 2.5 μl of a 10 mM vancomycin solution and PBS to a final volume of 250 μl in a microtube (3 pins per tube) for 60 minutes at room temperature with occasional agitation. In a piece of silicone tubing (1.5 mm inner diameter, 50 mm long), added is tryptic soy broth+0.2% glucose, the coated pin, and 10^3 colony forming units (cfu) of Staphylococcus aureus strain MZ100 in either a 20 μl inoculum, 40 μl inoculum, or 60 μl inoculum. The tubing is clamped closed, and the tubing is incubated for 37° C. for 3 hours. After 3 hours, serial dilutions (1:10, 1:100, 1:1000) were made of the culture media from each tubing, and 10 μl of the undiluted culture medium and of each dilution were spotted onto the bacterial culture plate. The bacterial culture plate was incubated overnight at 37° C., and then the cfus were counted. The results, a composite of different assay runs, are shown in Table 6 (“-” means no cfus; “many” means too many cfus to count, as they converge into one spot; “NT” means not tested).

[2] = Vancomycin loading onto coated titanium bead (HCl elution, HPLC); format: binding; details: peptide/polymer + vancomycin mixture 30 mins 20° C., PBS washes, 100 mM HCl eluate by HPLC
Experimental: The experimental procedure used for the embodiments described above was as follows. […] All three components were mixed and then applied to the metal bead. […] All three components were mixed and then applied to the metal bead. […] The mixtures were applied to the metal beads and incubated for 30 mins at 20° C. with 700 rpm shaking. The beads were washed three times with 350 ul PBS. Beads were analyzed as follows: 200 ul of 100 mM HCl was added to each bead and incubated for 30 mins at 20° C. with 1,000 rpm shaking. The eluate from each bead was analyzed by HPLC using Phenomenex Luna 3 um column, 50×4.60 mm. Output was compared to a standard curve for vancomycin to determine the amount of vancomycin retained onto the metal bead.

Substance | cfu 1:10 ([1]; inoculum volume 20 μl) | cfu 1:100 ([1]; inoculum volume 20 μl) | cfu 1:1000 ([1]; inoculum volume 20 μl) | cfu undiluted ([1]; inoculum volume 20 μl) | cfu 1:10 ([1]; inoculum volume 40 μl) [cfu] | cfu 1:100 ([1]; inoculum volume 40 μl) [cfu] | cfu 1:1000 ([1]; inoculum volume 40 μl) | cfu undiluted ([1]; inoculum volume 40 μl) | cfu 1:10 ([1]; inoculum volume 60 μl) [cfu] | cfu 1:100 ([1]; inoculum volume 60 μl) [cfu] | cfu 1:1000 ([1]; inoculum volume 60 μl) | cfu undiluted ([1]; inoculum volume 60 μl) | Vancomycin Load [2]
SSSCLIDMYGVCHNFDGAYDSSRG [Compound 134, AUD-AUD-AUD-AUD-SEQ ID NO:124-linker-SEQ ID NO:122] | — | — | — | — | 6 | 1 | — | many | 17 | 5 | — | many | 
MA-AHx-SSCLIDIYGVCHN FDAY-miniPeg-miniPeg-YFRAFRKFVKPFKRAFKGSSK(Biotin) [SEQ ID NO:165] |  |  |  |  |  |  |  |  |  |  |  |  | 1,700 pmol/cm2
SSSCLIDMYGVCHNFDGAYDSSRG-miniPeg-miniPeg-SSHRTNHKKNNPKKKNKTRGSSGK (SSSCLIDMYGVCHNFDGAYDSSRG[AEEA][AEEA]SSHRTNHKKNNPKKKNKTRGSSGK; not fully specified (bridges); printed as SSSCLIDMYGVCHNFDGAYDSSRG-miniPeg-miniPeg-SSHRTNHKKNNPKKKNKTRGSSGK; cysteine pairing not given here) [SEQ ID NO:163] |  |  |  |  |  |  |  |  |  |  |  |  | 54 pmol/cm2
